Converted amounts (≈) assume the structure as drawn.
How the values were obtained:
Assay in all cases: MIC, standard microdilution
S. aureus ATCC29213 = format: cell-based, Staphylococcus aureus; conditions: for MIC: Staphylococcus aureus, read-out: minimum inhibitory concentration (MIC)
From the text: (§1) The antibacterial activities of the compounds have been determined by standard microdilution technique (National Committee for Clinical Laboratory Standards. 1997. Methods for dilution antimicrobial susceptibility tests for bacteria that grow aerobically, 4th edition. Approved standard M7-A4. National Committee for Clinical Laboratory Standards, Wayne, Pa.).

S. aureus 1086 = format: cell-based, Staphylococcus aureus; conditions: for MIC: Staphylococcus aureus, read-out: minimum inhibitory concentration (MIC)
From the text: as §1

S. aureus 745 = format: cell-based, Staphylococcus aureus; conditions: for MIC: Staphylococcus aureus, read-out: minimum inhibitory concentration (MIC)
From the text: as §1

[1] = system: P. aeruginosa ATCC27853 (+Ery. 32 μg/ml); format: cell-based
From the text: as §1

E. coli ATCC25922 = format: cell-based; conditions: for MIC: Escherichia coli, read-out: minimum inhibitory concentration (MIC)
From the text: as §1

St. pneumoniae 12288 = format: cell-based, Streptococcus pneumoniae; conditions: for MIC: Streptococcus pneumoniae, read-out: minimum inhibitory concentration (MIC)
From the text: as §1

St. pneumoniae SL199T = format: cell-based, Streptococcus pneumoniae; conditions: for MIC: Streptococcus pneumoniae, read-out: minimum inhibitory concentration (MIC)
From the text: as §1

St. pneumoniae 1/1 = format: cell-based, Streptococcus pneumoniae; conditions: for MIC: Streptococcus pneumoniae, read-out: minimum inhibitory concentration (MIC)
From the text: as §1

St. pneumoniae 1/4 = format: cell-based, Streptococcus pneumoniae; conditions: for MIC: Streptococcus pneumoniae, read-out: minimum inhibitory concentration (MIC)
From the text: as §1

Row | MIC (S. aureus ATCC29213) [µg/mL] | MIC (S. aureus 1086) [µg/mL] | MIC (S. aureus 745) [µg/mL] | minimum inhibitory concentration (MIC) [1] [µg/mL] | MIC (E. coli ATCC25922) [µg/mL] | MIC (St. pneumoniae 12288) [µg/mL] | MIC (St. pneumoniae SL199T) [µg/mL] | MIC (St. pneumoniae 1/1) [µg/mL] | MIC (St. pneumoniae 1/4) [µg/mL] | minimum inhibitory concentration (MIC) (S. aureus ATCC29213) [µg/mL] | minimum inhibitory concentration (MIC) (S. aureus 1086) [µg/mL] | minimum inhibitory concentration (MIC) (S. aureus 745) [µg/mL] | minimum inhibitory concentration (MIC) (E. coli ATCC25922) [µg/mL] | minimum inhibitory concentration (MIC) (St. pneumoniae 12288) [µg/mL] | minimum inhibitory concentration (MIC) (St. pneumoniae SL199T) [µg/mL] | minimum inhibitory concentration (MIC) (St. pneumoniae 1/1) | minimum inhibitory concentration (MIC) (St. pneumoniae 1/4) [µg/mL] | Compound
1 | ≤ 0.25 | ≤ 0.25 | > 16 | >16 | > 16 | 8 (≈ 10.5 µM) | 4 (≈ 5.24 µM) | ≤ 0.5 | 4 (≈ 5.24 µM) |  |  |  |  |  |  |  |  | CC[C@H]1OC(=O)[C@H](C)C(=O)[C@H](C)[C@@H](O[C@@H]2O[C@H](C)C[C@H](N(C)C)[C@H]2O)[C@](C)(OC)C[C@@H](C)C(=O)[C@H](C)[C@H]2[C@H](SCCOc3ccccc3)C(=O)O[C@@]21C [Compound I-11, (3S,3aR,4R,6R,8R,9R,10R,12R,15R,15aS)-15-Ethyloctahydro-8-methoxy-4,6,8,10,12,15a-hexamethyl-3-[[2-phenoxyethyl]thio]-9-[[3,4,6-trideoxy-3-(dimethylamino)-β-D-xylo-hexopyranosyl]oxy]-2H-furo[2,3-c]oxacyclotetradecin-2,5,11,13(3H,6H,12H)-tetrone]
2 | ≤ 0.12 | ≤ 0.12 | > 16 | >16 | 16 (≈ 19.5 µM) | 0.25 (≈ 0.305 µM) | ≤ 0.25 | ≤ 0.25 | ≤ 0.25 |  |  |  |  |  |  |  |  | CC[C@H]1OC(=O)[C@H](C)C(=O)[C@H](C)[C@@H](O[C@@H]2O[C@H](C)C[C@H](N(C)C)[C@H]2O)[C@](C)(OC)C[C@@H](C)C(=O)[C@H](C)[C@H]2[C@H](SCCCn3cnc4c(N)ncnc43)C(=O)O[C@@]21C [Compound I-26, (3S,3aR,4R,6R,8R,9R,10R,12R,15R,15aS)-3-[[3-[6-Amino-9H-purine-9-yl]propyl]thio]-15-ethyloctahydro-8-methoxy-4,6,8,10,12,15a-hexamethyl-9-[[3,4,6-trideoxy-3-(dimethylamino)-β-D-xylo-hexopyranosyl]oxy]-2H-furo[2,3-c]oxacyclotetradecin-2,5,11,13(3H,6H,12H)-tetrone]
3 | 1 (≈ 1.26 µM) | 1 (≈ 1.26 µM) | > 16 | >16 | > 16 | 16 (≈ 20.2 µM) | 16 (≈ 20.2 µM) | ≤ 0.5 | 1 (≈ 1.26 µM) |  |  |  |  |  |  |  |  | CC[C@H]1OC(=O)[C@H](C)C(=O)[C@H](C)[C@@H](O[C@@H]2O[C@H](C)C[C@H](N(C)C)[C@H]2O)[C@](C)(OC)C[C@@H](C)C(=O)[C@H](C)[C@H]2[C@H](S(=O)(=O)CCCc3ccccc3)C(=O)O[C@@]21C [Compound I-24, (3S,3aR,4R,6R,8R,9R,10R,12R,15R,15aS)-15-Ethyloctahydro-8-methoxy-4,6,8,10,12,15a-hexamethyl-3-[(3-phenylpropyl)sulfonyl]-9-[[3,4,6-trideoxy-3-(dimethylamino)-β-D-xylo-hexopyranosyl]oxy]-2H-furo[2,3-c]oxacyclotetradecin-2,5,11,13(3H,6H,12H)-tetrone]
4 |  |  |  | >16 |  |  |  |  |  | 0.25 (≈ 0.339 µM) | 0.25 (≈ 0.339 µM) | >16 | >16 | >16 | 8 (≈ 10.8 µM) | <=0.12 μg/ml | 1 (≈ 1.36 µM) | CC[C@H]1OC(=O)[C@H](C)C(=O)[C@H](C)[C@@H](O[C@@H]2O[C@H](C)C[C@H](N(C)C)[C@H]2O)[C@](C)(OC)C[C@@H](C)C(=O)[C@H](C)[C@H]2[C@H](SCCn3ccnc3)C(=O)O[C@@]21C [Compound I-22]
5 | ≤ 0.25 | ≤ 0.25 | > 16 | >16 | 16 (≈ 21.4 µM) | 8 (≈ 10.7 µM) | 2 (≈ 2.67 µM) | ≤ 0.5 | 1 (≈ 1.34 µM) |  |  |  |  |  |  |  |  | CC[C@H]1OC(=O)[C@H](C)C(=O)[C@H](C)[C@@H](O[C@@H]2O[C@H](C)C[C@H](N(C)C)[C@H]2O)[C@](C)(OC)C[C@@H](C)C(=O)[C@H](C)[C@H]2[C@H](SCCc3ccccn3)C(=O)O[C@@]21C [Compound I-13, (3S,3aR,4R,6R,8R,9R,10R,12R,15R,15aS)-15-Ethyloctahydro-8-methoxy-4,6,8,10,12,15a-hexamethyl-3-[[2-(2-pyridinyl)ethyl]thio]-9-[[3,4,6-trideoxy-3-(dimethylamino)-β-D-xylo-hexopyranosyl]oxy]-2H-furo[2,3-c]oxacyclotetradecin-2,5,11,13(3H,6H,12H)-tetrone]

Further lines, the compound ahead of its results:

Row | Compound | MIC (S. aureus ATCC29213) [µg/mL] | MIC (S. aureus 1086) [µg/mL] | MIC (S. aureus 745) [µg/mL] | minimum inhibitory concentration (MIC) [1] [µg/mL] | MIC (E. coli ATCC25922) [µg/mL] | MIC (St. pneumoniae 12288) [µg/mL] | MIC (St. pneumoniae SL199T) [µg/mL] | MIC (St. pneumoniae 1/1) [µg/mL] | MIC (St. pneumoniae 1/4) [µg/mL] | minimum inhibitory concentration (MIC) (S. aureus ATCC29213) [µg/mL] | minimum inhibitory concentration (MIC) (S. aureus 1086) [µg/mL] | minimum inhibitory concentration (MIC) (S. aureus 745) [µg/mL] | minimum inhibitory concentration (MIC) (E. coli ATCC25922) [µg/mL] | minimum inhibitory concentration (MIC) (St. pneumoniae 12288) [µg/mL] | minimum inhibitory concentration (MIC) (St. pneumoniae SL199T) [µg/mL] | minimum inhibitory concentration (MIC) (St. pneumoniae 1/1) | minimum inhibitory concentration (MIC) (St. pneumoniae 1/4) [µg/mL]
6 | CC[C@H]1OC(=O)[C@H](C)C(=O)[C@H](C)[C@@H](O[C@@H]2O[C@H](C)C[C@H](N(C)C)[C@H]2O)[C@](C)(OC)C[C@@H](C)C(=O)[C@H](C)[C@H]2[C@H](C#N)C(=O)O[C@@]21C [Compound I-23, (3R,3aS,4R,6R,8R,9R,10R,12R,15R,15aS)-15-Ethyltetradecahydro-8-methoxy-4,6,8,10,12,15a-hexamethyl-2,5,11,13-tetraoxo-9-[[3,4,6-trideoxy-3-(dimethylamino)-β-D-xylo-hexopyranosyl]oxy]-2H-furo[2,3-c]oxacyclotetradecin-3-carbonitrile] | ≤ 0.25 | ≤ 0.25 | > 16 | >16 | > 16 | > 32 | 32 (≈ 50.3 µM) | ≤ 0.5 | 8 (≈ 12.6 µM) |  |  |  |  |  |  |  | 
7 | CC[C@H]1OC(=O)[C@H](C)C(=O)[C@H](C)[C@@H](O[C@@H]2O[C@H](C)C[C@H](N(C)C)[C@H]2O)[C@](C)(OC)C[C@@H](C)C(=O)[C@H](C)[C@H]2[C@H](SCCn3ccc(-c4cccnc4)n3)C(=O)O[C@@]21C [Compound I-16, (3S,3aR,4R,6R,8R,9R,10R,12R,15R,15aS)-15-Ethyloctahydro-8-methoxy-4,6,8,10,12,15a-hexamethyl-3-[[2-[3-(3-pyridinyl)-1H-pyrazol-1-yl]-ethyl]thio]-9-[[3,4,6-trideoxy-3-(dimethylamino)-β-D-xylo-hexopyranosyl]oxy]-2H-furo[2,3-c]oxacyclotetradecin-2,5,11,13(3H,6H,12H)-tetrone] | ≤ 0.12 | ≤ 0.12 | > 16 | >16 | > 16 | 0.5 (≈ 0.613 µM) | 0.5 (≈ 0.613 µM) | ≤ 0.12 | ≤ 0.12 |  |  |  |  |  |  |  | 
8 | CC[C@H]1OC(=O)[C@H](C)C(=O)[C@H](C)[C@@H](O[C@@H]2O[C@H](C)C[C@H](N(C)C)[C@H]2O)[C@](C)(OC)C[C@@H](C)C(=O)[C@H](C)[C@H]2[C@H](Sc3ccccc3)C(=O)O[C@@]21C [Compound I-3, (3S,3aR,4R,6R,8R,9R,10R,12R,15R,15aS)-15-Ethyloctahydro-8-methoxy-4,6,8,10,12,15a-hexamethyl-3-[phenylthio]-9-[[3,4,6-trideoxy-3-(dimethylamino)-β-D-xylo-hexopyranosyl]oxy]-2H-furo[2,3-c]oxacyclotetradecin-2,5,11,13(3H,6H,12H)-tetrone] | 0.5 (≈ 0.695 µM) | 0.5 (≈ 0.695 µM) | > 16 | >16 | > 16 | 16 (≈ 22.2 µM) | 16 (≈ 22.2 µM) | ≤ 0.5 | 2 (≈ 2.78 µM) |  |  |  |  |  |  |  | 
9 | CC[C@H]1OC(=O)[C@H](C)C(=O)[C@H](C)[C@@H](O[C@@H]2O[C@H](C)C[C@H](N(C)C)[C@H]2O)[C@](C)(OC)C[C@@H](C)C(=O)[C@H](C)[C@H]2[C@H](SCCc3ccccc3)C(=O)O[C@@]21C [Compound I-1, (3S,3aR,4R,6R,8R,9R,10R,12R,15R,15aS)-15-Ethyloctahydro-8-methoxy-4,6,8,10,12,15a-hexamethyl-3-[[2-phenylethyl]thio]-9-[[3,4,6-trideoxy-3-(dimethylamino)-β-D-xylo-hexopyranosyl]oxy]-2H-furo[2,3-c]oxacyclotetradecin-2,5,11,13(3H,6H,12H)-tetrone] | ≤ 0.25 | ≤ 0.25 | > 16 | >16 | > 16 | 32 (≈ 42.8 µM) | 4 (≈ 5.35 µM) | ≤ 0.5 | 1 (≈ 1.34 µM) |  |  |  |  |  |  |  | 
10 | CC[C@H]1OC(=O)[C@H](C)C(=O)[C@H](C)[C@@H](O[C@@H]2O[C@H](C)C[C@H](N(C)C)[C@H]2O)[C@](C)(OC)C[C@@H](C)C(=O)[C@H](C)[C@H]2[C@H](SCCCc3ccccn3)C(=O)O[C@@]21C [Compound I-10, (3S,3aR,4R,6R,8R,9R,10R,12R,15R,15aS)-15-Ethyloctahydro-8-methoxy-4,6,8,10,12,15a-hexamethyl-3-[[3-(2-pyridinyl)propyl]thio]-9-[[3,4,6-trideoxy-3-(dimethylamino)-β-D-xylo-hexopyranosyl]oxy]-2H-furo[2,3-c]oxacyclotetradecin-2,5,11,13(3H,6H,12H)-tetrone] | ≤ 0.12 | ≤ 0.12 | > 16 | >16 | > 16 | 8 (≈ 10.5 µM) | 2 (≈ 2.62 µM) | ≤ 0.12 | 0.25 (≈ 0.328 µM) |  |  |  |  |  |  |  | 

From patent publication US6740642B2, “Macrolides with antibacterial activity” (BAsilea Parmaceutica AG, priority 2000, dated 2004)
